The values that follow come from patent publication US20130072531A1, “SOLID DISPERSION COMPRISING AN ANTI-HIV AGENT” (AiCuris GmbH & Co. KG, priority 2009, published 2013).

Structures are written as SMILES.

Data set [1] is described as follows: Solubility studies: dissolution, paddle method, sodium laurylsulphate 0.5% (w/v) medium. It is filed as physicochemical. How it is done: The compound of formula (I) both in crystalline form and spray dried (at T0 and after 3 weeks […]) storage at 25° C., 60% RH and 40° C., 75% RH respectively) as well as the solid dispersions of Examples 1 to 4 (at T0 and after 2 weeks […]) storage at 25° C., 60% RH and 40° C., 75% RH respectively) and Example 5 at T0 only were introduced in a VK 7000 dissolution system (VanKel, New Jersey, USA), using the paddle method, combined with a VK 8000 automatic sampling station (n=3). Sodium laurylsulphate 0.5% (w/v) was used as dissolution medium. The temperature of the medium (900 ml) was kept at 37±0.5 ° C., while the rotational speed of the paddles was set at 100 rpm. Samples (filtered using Full Flow Filters (Varian) -35 μm) of 5 ml were withdrawn at 5, 10, 15, 20, 30, 45 and 60 min and spectrophotometrically analysed at 240 nm by UV-spectrophotometry, type UV-1650 (Shimadzu, Deurne, Belgium) (w/w dilution if necessary), using an appropriate calibration curve. Each vessel contained approximately 150 mg of the compound of formula (I).

Data set [2] deals with wild-type and resistant HIV strains. In words: Activity against HIV strains (experiences so far).
Data set [3] is described as follows: Water solubility of crystals (experiences so far). It is filed as physicochemical.
Data set [4] is described as follows: X-ray diffraction of solid dispersions at T0 and after storage. Conditions: after 3 weeks at 40° C., 75% RH. It is filed as physicochemical. How it is done: The spray dried particles were collected in a reservoir attached to a cyclone, cooled down to room temperature and stored in sealed vials (room temperature, ambient relative humidity (RH)) prior to their characterisation at T0. After characterisation at T0, the spray dried solids were stored in open vials for 2 weeks (3 weeks for Comparative Example 1) in desiccators at 25° C., 60% RH and 40° C., 75% RH. X-ray diffraction (D-500, Siemens, Germany) with CuKα radiation (0.154 nm) was performed on physical mixtures of the compound of formula (I) with HPMC ES, HPC LF, HPMCP HP-50 and PVP K30 and the corresponding solid dispersions (at T0 and after 2 weeks […]) storage at both conditions), as well as spray dried compound of formula (I) without polymer (storage for three weeks under the two conditions). The angular range (2θ) varied from 15 to 60° with steps of 0.02° and the measuring time was 1 s/step.

A short description of data set [5]: Storage experiments, visual inspection. It is filed as physicochemical. The following applies: open vials, 2 weeks (3 weeks Comparative Example 1), 25° C., 60% RH and 40° C., 75% RH. How it is done:
The spray dried particles were collected in a reservoir attached to a cyclone, cooled down to room temperature and stored in sealed vials (room temperature, ambient relative humidity (RH)) prior to their characterisation at T0. After characterisation at T0, the spray dried solids were stored in open vials for 2 weeks (3 weeks for Comparative Example 1) in desiccators at 25° C., 60% RH and 40° C., 75% RH.

As for `O=C1CN(C(=O)c2cc(-c3cc(F)cc(Cl)c3)n(-c3ccc(F)c(Cl)c3)n2)CN1` [compound of formula (I)], the “compound of formula (I) dissolved / released after 60 minutes” value in data set [1] (fresh (T0), sodium laurylsulphate 0.5% (w/v), 900 ml, 37 °C, 100 rpm, 60 min) is “about 40%”. In addition, in data set [2], the “activity against wild-type and resistant HIV strains” value was “highly active”. Moreover, the “water solubility of crystals” value in data set [3] is given as “only sparingly water-soluble”.

As to `O=C1CN(C(=O)c2cc(-c3cc(F)cc(Cl)c3)n(-c3ccc(F)c(Cl)c3)n2)CN1` [Comparative Example 1], the “compound of formula (I) dissolved after 60 minutes after storage” value in data set [1] (after storage at 40° C., 75% RH for three weeks, 60 min) was 35%. The “compound of formula (I) dissolved / released after 30 minutes” value in data set [1] (fresh (T0), sodium laurylsulphate 0.5% (w/v), 900 ml, 37 °C, 100 rpm, 30 min) is listed as “about 60%”. For the same molecule, the “formation of the crystalline form of the compound of formula (I) (X-ray)” value in data set [4] is recorded as “formation of a large amount of the crystalline form”. For the same molecule, the “storage stability to visual inspection (colouration)” value in data set [5] is reported as “storage stable”.
